Assay results from ChEMBL document CHEMBL1135054, “Biphenylsulfonamide endothelin receptor antagonists. Part 3: structure-activity relationship of 4'-heterocyclic biphenylsulfonamides” (Bioorg Med Chem Lett, 2002).

What follows are molecules tested against T1, Endothelin-1 receptor (Homo sapiens, UniProt P25101) (assay: biochemical).
T1 sequence (P25101 whole entry): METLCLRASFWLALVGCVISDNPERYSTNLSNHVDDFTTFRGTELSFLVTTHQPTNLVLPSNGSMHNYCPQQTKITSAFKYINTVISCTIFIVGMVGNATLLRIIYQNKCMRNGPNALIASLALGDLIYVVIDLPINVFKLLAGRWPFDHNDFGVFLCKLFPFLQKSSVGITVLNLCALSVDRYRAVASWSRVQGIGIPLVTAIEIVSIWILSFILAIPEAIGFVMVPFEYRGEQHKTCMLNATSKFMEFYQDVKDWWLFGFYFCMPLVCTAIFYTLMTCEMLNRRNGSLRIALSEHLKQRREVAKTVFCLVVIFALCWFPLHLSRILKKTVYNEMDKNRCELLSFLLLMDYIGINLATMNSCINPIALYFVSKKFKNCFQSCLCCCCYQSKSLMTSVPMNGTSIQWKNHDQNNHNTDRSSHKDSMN
Description: Binding affinity to CHO cells stably expressing human Endothelin A receptor.

Compared with `Cc1noc(NS(=O)(=O)c2ccccc2-c2ccc(-c3ncccn3)cc2)c1C`, `Cc1noc(NS(=O)(=O)c2ccccc2-c2ccc(-c3cnccn3)cc2)c1C` is 6.9-fold higher in Ki: 0.0009 µM for the first, 0.0062 µM for the second. The first binds more tightly here.

Going from `Cc1noc(NS(=O)(=O)c2ccccc2-c2ccc(-c3ncc[nH]3)cc2)c1C` to `Cc1noc(NS(=O)(=O)c2ccccc2-c2ccc(-c3nccs3)cc2)c1C`, the Ki falls from 0.044 µM to 0.0056 µM (7.9-fold).

First: Cc1[n-][o+]c(NS(=O)(=O)c2ccccc2-c2ccc(-c3cccc[n+]3[O-])cc2)c1C
Second: Cc1noc(NS(=O)(=O)c2ccccc2-c2ccc(-c3ccccn3)cc2)c1C
The Ki of the first is 16-fold higher: 0.037 µM for the first, 0.0023 µM for the second. The second binds more tightly here.

Compared with `Cc1noc(NS(=O)(=O)c2ccccc2-c2ccc(-c3nccn3C)cc2)c1C`, `Cc1noc(NS(=O)(=O)c2ccccc2-c2ccc(-c3ccno3)cc2)c1C` is 14-fold higher in Ki: 0.019 µM for the first, 0.27 µM for the second. The first binds more tightly here.

First: Cc1noc(NS(=O)(=O)c2ccccc2-c2ccc(-c3ccncn3)cc2)c1C
Second: Cc1noc(NS(=O)(=O)c2ccccc2-c2ccc(-c3cccnc3)cc2)c1C
The Ki of the first is 7.6-fold higher: 0.025 µM for the first, 0.0033 µM for the second.

Compared with `Cc1noc(NS(=O)(=O)c2ccccc2-c2ccc(-n3cccn3)cc2)c1C`, `Cc1noc(NS(=O)(=O)c2ccccc2-c2ccc(-c3cncnc3)cc2)c1C` is 45-fold higher in Ki: 0.0067 µM for the first, 0.3 µM for the second. The first binds more tightly here.

Compared with `COc1cc(OC)nc(-c2ccc(-c3ccccc3S(=O)(=O)Nc3onc(C)c3C)cc2)n1`, `Cc1noc(NS(=O)(=O)c2ccccc2-c2ccc(-c3nnco3)cc2)c1C` is 55-fold lower in Ki: 0.22 µM for the first, 0.004 µM for the second.

First: Cc1noc(NS(=O)(=O)c2ccccc2-c2ccc(-c3nnn[nH]3)cc2)c1C
Second: Cc1noc(NS(=O)(=O)c2ccccc2-c2ccc(-c3ccccc3)cc2)c1C
The Ki of the first is 100-fold higher: 3.8 µM for the first, 0.038 µM for the second.

Each molecule was assayed against T2, Endothelin receptor type B (Homo sapiens, UniProt P24530) (assay: Binding affinity to CHO cells stably expressing human Endothelin B receptor.).
T2 sequence (P24530 whole entry): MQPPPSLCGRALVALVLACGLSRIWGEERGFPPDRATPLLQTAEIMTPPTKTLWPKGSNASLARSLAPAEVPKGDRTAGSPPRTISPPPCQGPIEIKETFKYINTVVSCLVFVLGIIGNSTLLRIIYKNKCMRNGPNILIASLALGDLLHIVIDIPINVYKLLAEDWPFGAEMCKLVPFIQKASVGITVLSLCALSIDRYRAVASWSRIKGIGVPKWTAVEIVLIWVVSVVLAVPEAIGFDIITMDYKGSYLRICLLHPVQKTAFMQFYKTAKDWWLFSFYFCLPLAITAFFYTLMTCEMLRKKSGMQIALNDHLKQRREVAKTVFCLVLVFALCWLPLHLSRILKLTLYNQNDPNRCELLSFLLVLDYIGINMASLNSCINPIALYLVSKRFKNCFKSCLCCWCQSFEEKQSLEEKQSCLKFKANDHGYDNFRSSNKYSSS
Assay type: cell-based

`Cc1noc(NS(=O)(=O)c2ccccc2-c2ccc(-c3ncccn3)cc2)c1C` and `Cc1noc(NS(=O)(=O)c2ccccc2-c2ccc(-c3cnccn3)cc2)c1C` are within 1.5-fold of each other in Ki: 16 µM for the first, 22 µM for the second.

Compared with `Cc1noc(NS(=O)(=O)c2ccccc2-c2ccc(-c3ncc[nH]3)cc2)c1C`, `Cc1noc(NS(=O)(=O)c2ccccc2-c2ccc(-c3nccs3)cc2)c1C` is 2.9-fold lower in Ki: 150 µM for the first, 52 µM for the second. The second binds more tightly here.

First: Cc1[n-][o+]c(NS(=O)(=O)c2ccccc2-c2ccc(-c3cccc[n+]3[O-])cc2)c1C
Second: Cc1noc(NS(=O)(=O)c2ccccc2-c2ccc(-c3ccccn3)cc2)c1C
The Ki of the first is 4.9-fold higher: 30.8 µM for the first, 6.3 µM for the second. The second binds more tightly here.

Going from `Cc1noc(NS(=O)(=O)c2ccccc2-c2ccc(-c3nccn3C)cc2)c1C` to `Cc1noc(NS(=O)(=O)c2ccccc2-c2ccc(-c3ccno3)cc2)c1C`, the Ki falls from 120 µM to 39 µM (3.1-fold). The second binds more tightly here.

Going from `Cc1noc(NS(=O)(=O)c2ccccc2-c2ccc(-c3ccncn3)cc2)c1C` to `Cc1noc(NS(=O)(=O)c2ccccc2-c2ccc(-c3cccnc3)cc2)c1C`, the Ki falls from 130 µM to 20 µM (6.5-fold). The second binds more tightly here.

First: Cc1noc(NS(=O)(=O)c2ccccc2-c2ccc(-n3cccn3)cc2)c1C
Second: Cc1noc(NS(=O)(=O)c2ccccc2-c2ccc(-c3cncnc3)cc2)c1C
The Ki of the first is 18-fold lower: 9.4 µM for the first, 170 µM for the second. The first binds more tightly here.

Going from `COc1cc(OC)nc(-c2ccc(-c3ccccc3S(=O)(=O)Nc3onc(C)c3C)cc2)n1` to `Cc1noc(NS(=O)(=O)c2ccccc2-c2ccc(-c3nnco3)cc2)c1C`, the Ki rises from 48 µM to 75 µM (1.6-fold).

Compared with `Cc1noc(NS(=O)(=O)c2ccccc2-c2ccc(-c3nnn[nH]3)cc2)c1C`, `Cc1noc(NS(=O)(=O)c2ccccc2-c2ccc(-c3ccccc3)cc2)c1C` is lower in Ki: over 200 µM for the first, 20 µM for the second.
